Measurements: patent US20230263826A1, “Compositions and Methods for Treatment and Prevention of Type 1 Diabetes” (The UAB Research Foundation, priority 2021, published 2023)

Target: T1, iPLA2β (Mus musculus, UniProt P97819)
T1 construct: from tissue; host or cells: whole animal: female NOD mice (wild-type Pla2g6), urine collected for PGE2 metabolites
T1 sequence (P97819 1-807): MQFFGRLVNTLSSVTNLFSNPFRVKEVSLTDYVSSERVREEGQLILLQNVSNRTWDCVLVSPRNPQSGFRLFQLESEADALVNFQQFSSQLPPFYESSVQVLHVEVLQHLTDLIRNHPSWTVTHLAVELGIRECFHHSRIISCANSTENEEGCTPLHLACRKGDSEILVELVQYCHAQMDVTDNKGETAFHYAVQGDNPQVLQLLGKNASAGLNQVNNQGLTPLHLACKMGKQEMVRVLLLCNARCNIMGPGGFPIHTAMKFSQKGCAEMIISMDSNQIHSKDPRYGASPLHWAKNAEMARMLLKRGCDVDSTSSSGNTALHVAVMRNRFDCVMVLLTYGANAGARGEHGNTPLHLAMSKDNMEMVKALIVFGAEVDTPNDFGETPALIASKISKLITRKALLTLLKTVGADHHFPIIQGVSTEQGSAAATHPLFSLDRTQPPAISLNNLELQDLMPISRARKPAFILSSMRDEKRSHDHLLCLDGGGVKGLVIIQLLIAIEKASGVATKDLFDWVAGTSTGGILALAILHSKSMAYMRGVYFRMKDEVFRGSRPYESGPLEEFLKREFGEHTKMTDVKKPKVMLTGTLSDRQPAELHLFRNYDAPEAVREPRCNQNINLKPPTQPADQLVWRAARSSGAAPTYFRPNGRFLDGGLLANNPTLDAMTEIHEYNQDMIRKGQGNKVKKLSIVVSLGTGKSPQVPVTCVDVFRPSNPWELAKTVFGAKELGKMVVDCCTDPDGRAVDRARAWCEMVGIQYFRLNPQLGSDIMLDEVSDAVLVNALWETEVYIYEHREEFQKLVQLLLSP
Assay: Urinary PGE2 metabolites (PGEM), reflecting in vivo inhibition of iPLA2β activity
Details: 8-week regimen group; 18 weeks of age
Description: FIGS. 1A-1M show the effects of temporal FKGK18 regimen on T1D incidence and islet phenotype, wherein female NOD mice were administered FKGK18 (20 mg/kg, 3 × weekly) or vehicle (PBS-T) starting at 4 or 8 weeks of age. FIGS. 1A and 1B show diabetes incidence; blood glucose was monitored weekly in the 4-week (FIG. 1A; n = 17 and 15 for PBS-T and FKGK18 groups, respectively) and 8-week (FIG. 1B; n = 15 each in the PBS-T and FKGK18 groups) regimen groups for up to 30 weeks. Two consecutive readings of ≥ 275 mg/dL were recorded as onset of T1D (^†P < 0.05). FIGS. 1C-1F show glucose tolerance test (GTT) results, wherein overnight fasted mice were administered glucose (2 g/kg, i.p.), glucose levels in blood from tail vein were monitored over a 2-hour period, and AUC were generated. […] FIGS. 1H and 1I show β Cell mass (PBS-T, n = 15; FKGK18, n = 14) (FIG. 1H) and circulating insulin (n = 15 in each group) (FIG. 1I) were determined at sacrifice (PBS-T, 14-30 weeks of age; FKGK18, 16-36 weeks of age). FIGS. 1J and 1K show islet infiltration; paraffin sections (10 µm) of pancreas were prepared and stained with H&E. Percent infiltration for each islet was calculated as the value of noninfiltrated area subtracted from total islet area (% infiltrate = 100 × [(total area - noninfiltrated area)/(total area)]) using ImageJ software. […]

urinary PGE2 metabolites (PGEM) relative to vehicle-treated mice: reduced
SMILES: O=C(CCCCc1ccc2ccccc2c1)C(F)(F)F [FKGK18]
